Results on 83 compounds are retold here after publication PMC12040169 (PLOS Biology, 2025).

A short description of the series: in vitro. Particulars: human, hela cells, % viability.
The viability is a read-out of living cells in per cent, often relative to untreated cells. As for `O=C(c1cnn(-c2cccc(Cl)c2)c1)N1CCOCC1CC(F)F` (centres unmarked) [CBK304207], the viability at 28.5 h, 10 µM was 95.5%.

Take `CCOC(=O)C1CSCCN1C(=O)c1ccc(-c2cnco2)cc1` (centres unmarked) [CBK304208]: the viability at 28.5 h, 10 µM was determined as 84.9%. With `CCOC(=O)c1cn(CC#N)c2cc(F)c(F)cc2c1=O` [CBK304211] the figure was 98.3%; with `Cc1nn(C)c(C(=O)Nc2sc3c(c2C#N)CCC(C)C3)c1Br` (centres unmarked) [CBK304212], 104%; with `CC1CCCN(CCCNS(=O)(=O)c2ccc(N3CCCC3=O)cc2)C1` (centres unmarked) [CBK304213], 90%. The result for `CCCC(=O)Nc1ccc(C(=O)N2CCN(CC)CC2)cc1` [CBK304218] reads 88.6%; that for `Cc1nc2cc(C(=O)N3CCCCC3CN3CCOCC3)ccc2[nH]1` (centres unmarked) [CBK304219], 109%. With `CC1CCN(CCCNS(=O)(=O)c2ccc(N3CCCC3=O)cc2)CC1` [CBK304220] the figure was 95.9%. In the case of `Cc1nn(CC(=O)N2CCN(C)CC2)c(=O)c2ccccc12` [CBK304221], the viability at 28.5 h, 10 µM is 93.3%. `CCn1cc(C2CN(S(=O)(=O)c3cccc(COC)c3)CCO2)cn1` (centres unmarked) [CBK304222]: the viability at 28.5 h, 10 µM worked out at 93.7%. With `CCn1cc(C2CN(S(=O)(=O)c3cc(C)c(OC)c(C)c3)CCO2)cn1` (centres unmarked) [CBK304224] the figure was 85.8%; with `CCOC(=O)Cc1csc(SC(C)C(=O)N2CCCc3ccccc32)n1` (centres unmarked) [CBK304228], 98.9%. With `CCN(CC(=O)NC(C)(C)C)Cc1nc(-c2cccc(Br)c2)no1` [CBK304230] the figure was 102%.

With `CN(Cc1ccsc1)C(=O)c1cccc(S(=O)(=O)NCC2CCCO2)c1` (centres unmarked) [CBK304232], the viability at 28.5 h, 10 µM stood at 83.7%.

On to `Cc1nc(COc2ccc(Cl)cc2)sc1C(=O)N1CCCCC1C(=O)O` (centres unmarked) [CBK304233], for which the viability at 28.5 h, 10 µM is 87.9%.

With `COc1ccc(Br)c(C(CO)N(C)C(=O)CC#N)c1` (centres unmarked) [CBK304240], the viability at 28.5 h, 10 µM was 88%. In the case of `Cn1ncc2c(NCc3cccc(Cn4cncn4)c3)ncnc21` [CBK304241], the viability at 28.5 h, 10 µM turned out to be 89.9%. For `Cc1nc(C(=O)NCC2CN3CCCN2CC3)ccc1C(=O)O` (centres unmarked) [CBK304242], the viability at 28.5 h, 10 µM was 94%.

With `CN(C(=O)C12CCOCC1CN(c1nccnc1C#N)C2)C1CCCC1` (centres unmarked) [CBK304244], the viability at 28.5 h, 10 µM was determined as 93.6%. With `CC(Cc1nc(-c2cnnn2C)cs1)n1cc(Cl)cn1` (centres unmarked) [CBK304245] the figure was 99.6%. The result for `CC(C)(C)OC(=O)N1CCC(N(CCCO)Cc2ccccn2)CC1` [CBK304246] reads 95.1%; that for `COc1cc(C(C)NC2CCN(c3nc(C)cs3)CC2)ccn1` (centres unmarked) [CBK304247], 83.4%. As to `CC(Cc1nc(-c2nccn2C(C)C)cs1)n1cc(Cl)cn1` (centres unmarked) [CBK304251], the viability at 28.5 h, 10 µM turned out to be 102%. With `COCC1(O)CCN(Cc2sccc2Cl)CC1` [CBK304252] the figure was 98.7%; with `CCOC(=O)C(NC(=O)c1c(C)nn(C)c1C)c1cccc(C)c1C` (centres unmarked) [CBK304253], 98.9%. With `Cc1ncsc1CCS(=O)(=O)N1CCOCC1c1cccc(F)c1` (centres unmarked) [CBK304254] the figure was 91%. With `CC(Cc1nc(-c2cnn(C)n2)cs1)n1cc(Cl)cn1` (centres unmarked) [CBK304256] the figure was 90.8%; with `CCc1ccc(C(O)CNC2CCN(CCOC)CC2)cc1` (centres unmarked) [CBK304259], 104%.

For the compound `Cc1nc(C(=O)NC2CCN(C)CC2)ccc1C(=O)O` [CBK304262], the viability at 28.5 h, 10 µM is 95.2%.

As to `CC(NCC(O)c1ccco1)c1ccc(C#N)s1` (centres unmarked) [CBK304265], the viability at 28.5 h, 10 µM worked out at 85.9%. The result for `O=C(C1CC(O)CN1)N1CC2(CCCC2)c2c(F)cccc21` (centres unmarked) [CBK304269C] reads 99%.

`Cn1cc(C2CNCCN2C(=O)c2coc3ccccc23)cn1` (centres unmarked) [CBK304270C]: the viability at 28.5 h, 10 µM worked out at 87%. On to `CC(N)C1CCCCN1S(=O)(=O)c1ccc(OCc2ncnn2C)cc1` (centres unmarked) [CBK304272C], for which the viability at 28.5 h, 10 µM turned out to be 94.3%.

As for `COc1ccccc1-c1cc2nc(C)cc(NCC3CCCO3)n2n1` (centres unmarked) [CBK304277], the viability at 28.5 h, 10 µM turned out to be 96.5%.

Consider `O=C(NCCNc1cnccn1)c1cncc(Br)c1` [CBK304278], for which the viability at 28.5 h, 10 µM was determined as 111%. With `CC1CCC2(CC1)NC(=O)N(Cc1csc(-c3ccco3)n1)C2=O` (centres unmarked) [CBK304279] the figure was 98.6%; with `CC(C)(C)OC(=O)N1CCCC(C(=O)NCCc2ccccn2)C1` (centres unmarked) [CBK304281], 86.5%. As to `O=C(Cc1cn2ccsc2n1)NCCS(=O)(=O)N1CCc2ccccc21` [CBK304282], the viability at 28.5 h, 10 µM is 75.4%. The result for `N#Cc1cccnc1N1CCC(NC(=O)c2cccnc2)CC1` [CBK304283] reads 103%; that for `CC1(C)CN(Cc2cccc(-c3ccccn3)c2)CCS1(=O)=O` [CBK304284], 99.8%.

On to `CCOc1ncccc1NC(=O)c1cnc2c(cnn2CC(C)C)c1` [CBK304288], for which the viability at 28.5 h, 10 µM worked out at 83.3%.

Consider `Cc1ccc2c(c1)nc(CNC(=O)NCc1ccnc(C)n1)n2C` [CBK304292], for which the viability at 28.5 h, 10 µM stood at 101%. With `CCC(=O)Nc1ccc(-c2csc(N(C)C)n2)cc1` [CBK304294C] the figure was 103%; with `COc1cc2c(cc1CNC1CCCc3c1cnn3C)OC(C)C2` (centres unmarked) [CBK304296C], 94.6%; with `CN(C(=O)CN)c1nc2c(s1)CC(c1ccccc1)CC2` (centres unmarked) [CBK304298C], 74.1%. The result for `CCc1noc(C)c1C(=O)N1CCC(NC)C1` (centres unmarked) [CBK304299C] reads 100%; that for `CCCN(C(=O)CCc1ccc(C)cc1C)C1CCNCC1` [CBK304302C], 109%. The result for `COc1c(Cl)cc(Cl)cc1CNC1CCCc2c1cnn2C` (centres unmarked) [CBK304305C] reads 90.6%; that for `COc1ccc(C)cc1C1(CNC(=O)C2CCCC2N)CCOCC1` (centres unmarked) [CBK304308C], 108%; that for `CNCC1CCN(S(=O)(=O)c2ccc(OCc3ncnn3C)cc2)CC1` [CBK304309C], 97.6%. Regarding `CN(C(=O)CCn1c(=O)oc2cc(Cl)ccc21)C1CCNC1` (centres unmarked) [CBK304310C], the viability at 28.5 h, 10 µM was 101%. For `COc1ccc(C)cc1C1(CNC(=O)C2CCC(N)C2)CCOCC1` (centres unmarked) [CBK304312C], the viability at 28.5 h, 10 µM worked out at 107%. Take `Cn1ncnc1COc1ccc(S(=O)(=O)N2CCCCC2CN)cc1` (centres unmarked) [CBK304313C]: the viability at 28.5 h, 10 µM is 82.3%. The result for `CN(C)CCCNC(=O)c1cccc(S(=O)(=O)N2CCCCC2)c1` [CBK304314C] reads 91.6%; that for `CS(=O)(=O)NC1CCN(c2nc(C(=O)O)nc3ccccc23)CC1` [CBK304316N], 105%. In the case of `CC(C)C(=O)Nc1ccc(-c2csc(N3CCN(C)CC3)n2)cc1` [CBK304317C], the viability at 28.5 h, 10 µM was determined as 93.5%. The result for `CN1CCN(c2nc(-c3ccc4c(c3)CCC(=O)N4)cs2)CC1` [CBK304319C] reads 80.6%.

Regarding `CCn1cc(NC(=O)C(CC)(CC)CN)ccc1=O` [CBK304320C], the viability at 28.5 h, 10 µM is 89.2%. As to `CC(C)c1nn(C)c(N(C)C)c1CNCc1cscn1` [CBK304321C], the viability at 28.5 h, 10 µM amounted to 84.4%. The result for `CCn1cc(Cl)c(C(=O)NC2CCN(c3cc(C)n[nH]3)CC2)n1` [CBK304322] reads 91.8%; that for `O=C(NC1CCS(=O)(=O)C1)c1cnc2c(OC(F)(F)F)cccc2c1O` (centres unmarked) [CBK304323], 99.7%; that for `Cc1cc(NC(=O)CCn2cc(Br)cn2)no1` [CBK304326], 102%. With `CCCOc1ccc(C(=O)N2CCN(c3ccccc3)CC2)cc1` [CBK304327] the figure was 90.7%; with `CCOC(=O)c1cnc2ccccc2c1NCCN1CCOCC1` [CBK304328], 101%. With `Cc1cc(NC(=O)C2CCN(C(=O)CCSc3ccccc3)CC2)no1` [CBK304329] the figure was 99%; with `CC(C)(C)OC(=O)N1CCC(c2nc(-c3cccnc3)no2)CC1` [CBK304332], 84.6%. Regarding `Cc1csc(CN(C)C(=O)c2cc3sccc3[nH]2)n1` [CBK304334], the viability at 28.5 h, 10 µM was found to be 92.7%.

As to `Cc1nn(C)cc1CNC(=O)c1cc2ncc(Br)cn2n1` [CBK304336], the viability at 28.5 h, 10 µM was 102%. With `CCCC(=O)Nc1ccc(C(=O)N2CCN(C)CC2)cc1` [CBK304337] the figure was 100%; with `Cc1cc(CN(C)C(=O)c2cc3sccc3[nH]2)no1` [CBK304340], 82.7%; with `O=C(NC1CCN(c2nc3cccnc3s2)CC1)c1ccsc1` [CBK304342], 93%. The result for `CCCC(=O)N1CCC(C(=O)Nc2ccccc2F)CC1` [CBK304346] reads 108%; that for `CC1(C)CC(NC(=O)Cn2ccc3ccccc32)CCO1` (centres unmarked) [CBK304347], 98%; that for `CC(C)c1nc(C(=O)NCC2CCCN(c3ncccn3)C2)cs1` (centres unmarked) [CBK304351], 100%.

For `COCCN(CC1CC1)C(=O)c1cc(NC(C)=O)ccc1Cl` [CBK304352], the viability at 28.5 h, 10 µM stood at 109%. With `O=C(CCCOc1ccccc1)N1CCN(c2cccc(Cl)c2)CC1` [CBK304354] the figure was 107%; with `Cc1nn(C)c(C)c1CCC(=O)NCC1CCN(c2ccccc2F)C1` (centres unmarked) [CBK304357], 96.7%.

Regarding `Cc1cc(NC(=O)C2CCN(C(=O)c3c(F)cccc3F)CC2)no1` [CBK304359], the viability at 28.5 h, 10 µM worked out at 95.9%.

On to `CN(Cc1cccc(C(F)(F)F)c1)C(=O)c1cn(CC2CCCO2)nn1` (centres unmarked) [CBK304360], for which the viability at 28.5 h, 10 µM turned out to be 99.8%. With `COc1ccc2cc(C(=O)N3CCn4cncc4C3)n(C)c2c1` [CBK304362] the figure was 98.6%; with `Cn1nccc1CCNC(=O)c1cccc(S(=O)(=O)N2CCCCC2)c1` [CBK304363], 97%.

Take `CCS(=O)(=O)N1CCC(C(=O)NC2CC(C)(C)Oc3ccccc32)CC1` (centres unmarked) [CBK304364]: the viability at 28.5 h, 10 µM worked out at 90.1%. With `CC1(C)CC(NC(=O)C2CCCN(S(C)(=O)=O)C2)c2ccccc2O1` (centres unmarked) [CBK304365] the figure was 98.2%.
